Measured values published in ChEMBL document CHEMBL1136032, “Remarkable influence of the aromatic substructure in 9-methoxystrobilurin derivatives on their antifungal activity” (Bioorg Med Chem Lett, 2002).
Activity calls are given as the source filed them. The calls are words filed in the database; no cut-off is given here.

Columns and labels:
[1] = system: Aspergillus fumigatus; experiment: Compound was tested for the antifungal activity against Aspergillus fumigatus (R-1301) at a concentration of 10 ug/disk; zone of inhibition was measured after 48 hr incubation.; assay type: functional
[2] = system: Candida albicans; experiment: Compound was tested for the antifungal activity against Candida albicans (IFO1594) at a concentration of 10 ug/disk; zone of inhibition was measured after 48 hr incubation.; assay type: functional
[3] = system: Fusarium solani; experiment: Compound was tested for the antifungal activity against Fusarium solani (R-2800) at a concentration of 10 ug/disk; zone of inhibition was measured after 48 hr incubation; NE denotes not effective; assay type: functional, organism-based
[4] = system: Penicillium citrinum; experiment: Compound was tested for the antifungal activity against Penicillium citrinum (R-3703) at a concentration of 10 ug/disk; zone of inhibition was measured after 48 h incubation.; assay type: functional
[5] = system: Saccharomyces cerevisiae; experiment: Compound was tested for the antifungal activity against Saccharomyces cerevisiae (IAM4861) at a concentration of 10 ug/disk; zone of inhibition was measured after 48 hr incubation.; assay type: functional
[6] = system: Aspergillus fumigatus; experiment: Compound was tested for the antifungal activity against Aspergillus fumigatus (R-1301) at a concentration of 0.1 ug/disk; zone of inhibition was measured after 48 hr incubation; NE denotes not effective; assay type: functional, organism-based
[7] = system: Aspergillus fumigatus; experiment: Compound was tested for the antifungal activity against Aspergillus fumigatus (R-1301) at a concentration of 10 ug/disk; zone of inhibition was measured after 48 hr incubation; assay type: functional
[8] = system: Aspergillus fumigatus; experiment: Compound was tested for the antifungal activity against Aspergillus fumigatus (R-1301) at a concentration of 1 ug/disk; zone of inhibition was measured after 48 hr incubation.; assay type: functional
[9] = system: Candida albicans; experiment: Compound was tested for the antifungal activity against Candida albicans (IFO1594) at a concentration of 0.1 ug/disk; zone of inhibition was measured after 48 h incubation; NE denotes not effective; assay type: functional, organism-based
[10] = system: Candida albicans; experiment: Compound was tested for the antifungal activity against Candida albicans (IFO1594) at a concentration of 1 ug/disk; zone of inhibition was measured after 48 hr incubation; assay type: functional
[11] = system: Fusarium solani; experiment: Compound was tested for the antifungal activity against Fusarium solani (R-2800) at a concentration of 0.1 ug/disk; zone of inhibition was measured after 48 hr incubation; NE denotes not effective; assay type: functional, organism-based
[12] = system: Fusarium solani; experiment: Compound was tested for the antifungal activity against Fusarium solani (R-2800) at a concentration of 1 ug/disk; zone of inhibition was measured after 48 hr incubation; NE denotes not effective; assay type: functional, organism-based
[13] = system: MRC5; experiment: Cytotoxicity against human diploid embryotic cell line (MRC-5); assay type: functional, cell-based
[14] = system: Penicillium citrinum; experiment: Compound was tested for the antifungal activity against Penicillium citrinum (R-3703) at a concentration of 0.1 ug/disk; zone of inhibition was measured after 48 hr incubation; +/- denotes slightly effective; assay type: functional, organism-based
[15] = system: Penicillium citrinum; experiment: Compound was tested for the antifungal activity against Penicillium citrinum (R-3703) at a concentration of 1 ug/disk; zone of inhibition was measured after 48 hr incubation.; assay type: functional
[16] = system: Saccharomyces cerevisiae; experiment: Compound was tested for the antifungal activity against Saccharomyces cerevisiae (IAM4861) at a concentration of 0.1 ug/disk; zone of inhibition was measured after 48 hr incubation.; assay type: functional
[17] = system: Saccharomyces cerevisiae; experiment: Compound was tested for the antifungal activity against Saccharomyces cerevisiae (IAM4861) at a dose of 1 ug/disk; the diameter of each inhibition zone was measured after 48 hr incubation.; assay type: functional
[18] = system: Aspergillus fumigatus; experiment: Compound was tested for the antifungal activity against Aspergillus fumigatus (R-1301) at a concentration of 0.1 ug/disk; zone of inhibition was measured after 48 hr incubation.; assay type: functional
[19] = system: Candida albicans; experiment: Compound was tested for the antifungal activity against Candida albicans (IFO1594) at a concentration of 0.1 ug/disk; zone of inhibition was measured after 48 hr incubation; +/- denotes slightly effective; assay type: functional, organism-based
[20] = system: Candida albicans; experiment: Compound was tested for the antifungal activity against Candida albicans (IFO1594) at a concentration of 1 ug/disk; zone of inhibition was measured after 48 hr incubation.; assay type: functional
[21] = system: Fusarium solani; experiment: Compound was tested for the antifungal activity against Fusarium solani (R-2800) at a concentration of 1 ug/disk; zone of inhibition was measured after 48 hr incubation; incomplete inhibition observed; assay type: functional
[22] = system: Fusarium solani; experiment: Compound was tested for the antifungal activity against Fusarium solani (R-2800) at a concentration of 10 ug/disk; zone of inhibition was measured after 48 hr incubation; incomplete inhibition observed; assay type: functional
[23] = system: Saccharomyces cerevisiae; experiment: Compound was tested for the antifungal activity against Saccharomyces cerevisiae (IAM4861) at a concentration of 1 ug/disk; zone of inhibition was measured after 48 hr incubation.; assay type: functional
[24] = system: Candida albicans; experiment: Compound was tested for the antifungal activity against Candida albicans (IFO1594) at a concentration of 1 ug/disk; zone of inhibition was measured after 48 h incubation; incomplete inhibition observed; assay type: functional
[25] = system: Candida albicans; experiment: Compound was tested for the antifungal activity against Candida albicans (IFO1594) at a concentration of 10 ug/disk; zone of inhibition was measured after 48 hr incubation; incomplete inhibition observed; assay type: functional
[26] = system: Penicillium citrinum; experiment: Compound was tested for the antifungal activity against Penicillium citrinum (R-3703) at a concentration of 0.1 ug/disk; zone of inhibition was measured after 48 hr incubation.; assay type: functional
[27] = system: Saccharomyces cerevisiae; experiment: Compound was tested for the antifungal activity against Saccharomyces cerevisiae (IAM4861) at a concentration of 0.1 ug/disk; zone of inhibition was measured after 48 hr incubation; incomplete inhibition observed; assay type: functional
[28] = system: Saccharomyces cerevisiae; experiment: Compound was tested for the antifungal activity against Saccharomyces cerevisiae (IAM4861) at a concentration of 10 ug/disk; zone of inhibition was measured after 48 hr incubation; incomplete inhibition observed; assay type: functional
[29] = system: Saccharomyces cerevisiae; experiment: Compound was tested for the antifungal activity against Saccharomyces cerevisiae (IAM4861) at a concentration of 1 ug/disk; zone of inhibition was measured after 48 hr incubation; incomplete inhibition observed; assay type: functional
[30] = system: Aspergillus fumigatus; experiment: Compound was tested for the antifungal activity against Aspergillus fumigatus (R-1301) at a concentration of 1 ug/disk; zone of inhibition was measured after 48 hr incubation; +/- denotes slightly effective; assay type: functional, organism-based
[31] = system: Aspergillus fumigatus; experiment: Compound was tested for the antifungal activity against Aspergillus fumigatus (R-1301) at a concentration of 0.1 ug/disk; zone of inhibition was measured after 48 hr incubation; +/- denotes slightly effective; assay type: functional, organism-based
[32] = system: Penicillium citrinum; experiment: Compound was tested for the antifungal activity against Penicillium citrinum (R-3703) at a concentration of 0.1 ug/disk; zone of inhibition was measured after 48 hr incubation; NE denotes not effective; assay type: functional, organism-based
[33] = system: Penicillium citrinum; experiment: Compound was tested for the antifungal activity against Penicillium citrinum (R-3703) at a concentration of 10 ug/disk; the diameter of each inhibition zone was measured after 48 hr incubation; NE denotes not effective; assay type: functional, organism-based
[34] = system: Penicillium citrinum; experiment: Compound was tested for the antifungal activity against Penicillium citrinum (R-3703) at a concentration of 1 ug/disk; zone of inhibition was measured after 48 hr incubation; NE denotes not effective; assay type: functional, organism-based
[35] = system: Saccharomyces cerevisiae; experiment: Compound was tested for the antifungal activity against Saccharomyces cerevisiae (IAM4861) at a concentration of 0.1 ug/disk; zone of inhibition was measured after 48 hr incubation; +/- denotes slightly effective; assay type: functional, organism-based
[36] = system: MRC5; experiment: Cytotoxicity against the human diploid embryotic cell line (MRC-5); assay type: functional, cell-based

Compound | Diameter of inhibition zone [1] [mm] | Diameter of inhibition zone [2] [mm] | Diameter of inhibition zone [3] | Diameter of inhibition zone [4] [mm] | Diameter of inhibition zone [5] [mm] | Diameter of inhibition zone [6] | Diameter of inhibition zone [8] [mm] | Diameter of inhibition zone [11] | Diameter of inhibition zone [12] | IC50 ([13]; Homo sapiens, MRC5) [µM] | Diameter of inhibition zone [14] | Diameter of inhibition zone [15] [mm] | Diameter of inhibition zone [19] | Diameter of inhibition zone [24] [mm] | Diameter of inhibition zone [25] [mm] | Diameter of inhibition zone [26] [mm] | Diameter of inhibition zone [27] [mm] | Diameter of inhibition zone [28] [mm] | Diameter of inhibition zone [29] [mm] | further results
NYSTATIN [listing 1 of 2 here] | 14 | 16 | inactive | 12 | 18 | – | – | – | – | – | – | – | – | – | – | – | – | – | – | –
CO\C=C(C(=O)OC)/C(C)=C(\C=C\c1cccc2ccccc12)OC | – | 15 | inactive | 17 | 22 | inactive | 10 | inactive | inactive | > 100 | Weak activity | 12 | – | – | – | – | – | – | – | Diameter of inhibition zone [7]: 14 mm; Diameter of inhibition zone [9]: inactive; Diameter of inhibition zone [10]: 5 mm; Diameter of inhibition zone [16]: 5 mm; Diameter of inhibition zone [17]: 18 mm
CO\C=C(C(=O)OC)/C(C)=C(\C=C\c1ccc2ccccc2c1)OC | 18 | 26 | – | 19 | 37 | – | 13 | inactive | – | > 100 | Weak activity | 14 | Weak activity | – | – | – | – | – | – | Diameter of inhibition zone [18]: 4 mm; Diameter of inhibition zone [20]: 16 mm; Diameter of inhibition zone [21]: 14 mm; Diameter of inhibition zone [22]: 13 mm; Diameter of inhibition zone [16]: 12 mm; Diameter of inhibition zone [23]: 30 mm
CO\C=C(C(=O)OC)/C(C)=C(\C=C\c1ccc(OC)cc1)OC | 29 | – | inactive | 29 | – | – | 18 | inactive | inactive | 35 | – | 23 | Weak activity | 27 | 33 | 9 | 28 | 42 | 36 | Diameter of inhibition zone [18]: 4 mm
CO\C=C(C(=O)OC)/C(C)=C(\C=C\c1ccc(OC)c(OC)c1)OC | 20 | – | inactive | 22 | – | inactive | – | inactive | inactive | 12 | Weak activity | 13 | Weak activity | 26 | 34 | – | 20 | 43 | 38 | Diameter of inhibition zone [30]: Weak activity
NYSTATIN [listing 2 of 2 here] | – | – | – | – | – | – | – | – | – | – | – | – | – | – | – | – | – | – | – | IC50 ([13]; mrc5): 34 µM
C=CC(C)(C)O[C@H]1COc2ccc(/C=C/C(OC)=C(C)\C(=C/OC)C(=O)OC)cc2OC1(C)C | 10 | 22 | – | – | 25 | – | 8 | inactive | – | 0.36 | – | – | – | – | – | – | – | – | – | Diameter of inhibition zone [31]: Weak activity; Diameter of inhibition zone [9]: inactive; Diameter of inhibition zone [20]: 17 mm; Diameter of inhibition zone [21]: 19 mm; Diameter of inhibition zone [22]: 25 mm; Diameter of inhibition zone [32]: inactive; Diameter of inhibition zone [33]: inactive; Diameter of inhibition zone [34]: inactive; Diameter of inhibition zone [35]: Weak activity; Diameter of inhibition zone [23]: 20 mm
CO\C=C(C(=O)OC)/C(C)=C(\C=C\c1ccc2c(c1)OCO2)OC | 22 | – | inactive | 18 | – | inactive | – | inactive | inactive | > 100 | Weak activity | 10 | Weak activity | 22 | 32 | – | 8 | 42 | 36 | Diameter of inhibition zone [30]: Weak activity
CO\C=C(C(=O)OC)/C(C)=C(\C=C\c1cccc(OC)c1)OC | 23 | – | inactive | 25 | – | inactive | 9 | inactive | inactive | 27 | – | 19 | Weak activity | 27 | 32 | 8 | 16 | 35 | 29 | –
CO\C=C(C(=O)OC)/C(C)=C(\C=C\c1ccccc1)OC [9-METHOXYSTROBILURIN A] | 31 | – | inactive | 28 | – | – | 15 | inactive | inactive | – | – | 18 | incomplete inhibition | 28 | 36 | 4 | 17 | 49 | 40 | Diameter of inhibition zone [31]: slightly effective; IC50 [36]: 34 µM
